What follows are compounds tested on Glo-Response ARE-luc2P HEK293 cell line (assay: ARE luciferase reporter cell-based assay). Details: Homo sapiens, HEK293, 24 h, average of results obtained.
Description: The ARE assay utilizes a luciferase reporter cell line where the signal is proportional to NrF2 activation of the ARE. The cell line is commercially available from Promega and was prepared by stably transfecting HEK293 cells with a vector (pGL4.11) which contains the ARE response element upstream of a minimal promoter. The promoter drives expression of luc2 firefly luciferase gene. Upon disruption of KEAP1-Nrf2 binding by compound, Nrf2 translocates into the nucleus where it binds to the ARE and activates transcription of luciferase.
The materials used in this ARE assay are as follows: Glo-Response ARE-luc2P HEK293 cell line and One-Glo Luciferase Assay System were purchased from Promega (Madison, Wis.). Dulbecco's Modified Eagle medium ((DMEM), low glucose, GlutaMAX, pyruvate), fetal bovine serum (certified, heat inactivated), hygromycin B, Dulbecco's phosphate-buffered saline were purchased from Life Technologies (Grand Island, N.Y.). Penicillin, streptomycin solution (100×) and 0.05% trypsin-EDTA were purchased from Corning (Manassas, Va.). DMSO was purchased from EMD Millipore.
The ARE assay protocol is as follows: cells were maintained in growth medium (DMEM+10% FBS, 200 μg/mL hygromycin B, p-s) between 20-90% confluency by splitting twice per week. One day before the assay, cells were trypsinized, counted to determine viable cell count, and re-suspended in assay medium (DMEM+10% FBS, p-s) at 250,000 cells/mL. […] 100% DMSO was used as the low control. A 11-point dose series of the control compound was included on every plate. Compounds were spotted to an intermediate plate (Greiner #781280 V-bottom 384 well plate) using the Echo acoustic dispenser (Labscyte San Jose, Calif.). Spot size was 240 nL.
On the day of the assay, 60 mL per well of assay medium was added to the pre-spotted plate to make 2× compound stocks using the Combi (Thermo Waltham, Mass.). Compound and medium were mixed on the Janus and 20 mL of 2×compound stock was added to the cell plate which already contained 20 mL of assay medium from cell plating. […] The plates were returned to the tissue culture incubator for 24 hours.
The next day, luciferase activity was measured according to the manufacturer's protocol for One-Glo luciferase reagent. The plates were removed from the incubator and allowed to equilibrate to room temperature for 30 min. Forty microliters of One-Glo reagent (equilibrated to room temperature) was added per well using the Combi. The plates were mixed on an orbital shaker for 3 min. Luminescence was read on the BMG Pherastar multiplate reader (Cary, N.C.) using the luminescence protocol (1 sec interval).
The dose-response data were analyzed in Genedata Screener using 4PL nonlinear regression model. Raw luminescence counts as well as normalized values were used for data analysis.
`CCn1nnc2c(C)c(C(CC(=O)O)c3ccc(C)c(CN4C[C@@H]5CCCN5c5ccccc5S4(=O)=O)c3)ccc21` (mixture of isomers) [Example 147, (R/S)-3-(3-(((S)-5,5-Dioxido-7a,8,9,10-tetrahydrobenzo[f]pyrrolo[2,1-d][1,2,5]thiadiazepin-6(7H)-yl)methyl)-4-methylphenyl)-3-(1-ethyl-4-methyl-1H-benzo[d][1,2,3]triazol-5-yl)propanoic Acid] was tested, and the EC50 was 19 nM.
Work on `CCn1nnc2c(C)c(C(CC(=O)O)c3ccc(C)c(CN4C[C@H]5CCCN5c5ccccc5S4(=O)=O)c3)ccc21` (mixture of isomers) [Example 152, (R/S)-3-(3-(((R)-5,5-Dioxido-7a,8,9,10-tetrahydrobenzo[f]pyrrolo[2,1-d][1,2,5]thiadiazepin-6(7H)-yl)methyl)-4-methylphenyl)-3-(1-ethyl-4-methyl-1H-benzo[d][1,2,3]triazol-5-yl)propanoic Acid] yielded an EC50 of 6.5 nM.
`CCn1nnc2c(C)c(C(CC(=O)O)c3ccc(C)c(CN4C[C@H]5COCCN5c5ncccc5S4(=O)=O)c3)ccc21` (mixture of isomers) [Example 135, (R/S)-3-(3-(((*S)-5,5-Dioxido-7a,8,10,11-tetrahydro-[1,4]oxazino[3,4-d]pyrido[2,3-f][1,2,5]thiadiazepin-6(7H)-yl)methyl)-4-methylphenyl)-3-(1-ethyl-4-methyl-1H-benzo[d][1,2,3]triazol-5-yl)propanoic Acid] gave an EC50 of 24 nM.
For `CCn1nnc2c(C)c(C(CC(=O)O)c3ccc(C)c(CN4C[C@@H]5COCCN5c5ncccc5S4(=O)=O)c3)ccc21` (mixture of isomers) [Example 138, (R/S)-3-(3-(((*R)-5,5-Dioxido-7a,8,10,11-tetrahydro-[1,4]oxazino[3,4-d]pyrido[2,3-f][1,2,5]thiadiazepin-6(7H)-yl)methyl)-4-methylphenyl)-3-(1-ethyl-4-methyl-1H-benzo[d][1,2,3]triazol-5-yl)propanoic Acid], the EC50 was 14 nM.
`CCn1nnc2c(C)c(C(CC(=O)O)c3ccc(C)c(CN4C[C@@H]5CCCCN5c5ncccc5S4(=O)=O)c3)ccc21` (mixture of isomers) [Example 141, (R/S)-3-(3-(((*S)-5,5-Dioxido-7,7a,8,9,10,11-hexahydro-6H-dipyrido[2,1-d:2′,3′-f][1,2,5]thiadiazepin-6-yl)methyl)-4-methylphenyl)-3-(1-ethyl-4-methyl-1H-benzo[d][1,2,3]triazol-5-yl)propanoic Acid] was tested, and the EC50 was 3.9 nM.
With `CCn1nnc2c(C)c(C(CC(=O)O)c3ccc(C)c(CN4C[C@H]5CCCCN5c5ncccc5S4(=O)=O)c3)ccc21` (mixture of isomers) [Example 144, (R/S)-3-(3-(((*R)-5,5-Dioxido-7,7a,8,9,10,11-hexahydro-6H-dipyrido[2,1-d:2′,3′-f][1,2,5]thiadiazepin-6-yl)methyl)-4-methylphenyl)-3-(1-ethyl-4-methyl-1H-benzo[d][1,2,3]triazol-5-yl)propanoic Acid] the EC50 was 3.1 nM.
Compound `CCn1nnc2c(C)c(C(CC(=O)O)c3ccc(C)c(CN4CC(C)(C)Oc5ncccc5S4(=O)=O)c3)ccc21` (racemic) [Example 150, (R/S)-3-[3-[(4,4-Dimethyl-1,1-dioxo-3H-pyrido[2,3-b][1,4,5]oxathiazepin-2-yl)methyl]-4-methyl-phenyl]-3-(1-ethyl-4-methyl-benzotriazol-5-yl)propanoic Acid] has an EC50 of 56 nM.
`CCn1nnc2c(C)c(C(CC(=O)O)c3ccc(C)c(CN4CC(C)(C)Oc5ccccc5S4(=O)=O)c3)ccc21` (racemic) [Example 151, (R/S)-3-(3-((4,4-Dimethyl-1,1-dioxido-3,4-dihydro-2H-benzo[b][1,4,5]oxathiazepin-2-yl)methyl)-4-methylphenyl)-3-(1-ethyl-4-methyl-1H-benzo[d][1,2,3]triazol-5-yl)propanoic Acid] was tested, and the EC50 was 10 nM.
In the case of `Cc1ccc([C@H](CC(=O)O)c2ccn3c(C(F)(F)F)nnc3c2C)cc1CN1CC2CCCCN2c2ncc(Cl)cc2S1(=O)=O` (mixture of isomers) [Example 191, (3*S)-3-(3-((3-Chloro-5,5-dioxido-7,7a,8,9,10,11-hexahydro-6H-dipyrido[2,1-d:2′,3′-f][1,2,5]thiadiazepin-6-yl)methyl)-4-methylphenyl)-3-(8-methyl-3-(trifluoromethyl)-[1,2,4]triazolo[4,3-a]pyridin-7-yl)propanoic Acid], the EC50 is reported as 1.9 nM.
For `Cc1ccc(C(CC(=O)O)c2ccc3c(nnn3C3CC3)c2C)cc1CN1CC2(CC2)N(C)c2ncccc2S1(=O)=O` (racemic) [Example 224, (R/S)-3-(1-Cyclopropyl-4-methyl-1H-benzo[d][1,2,3]triazol-5-yl)-3-(4-methyl-3-((5′-methyl-1′,1′-dioxido-5′H-spiro[cyclopropane-1,4′-pyrido[2,3-f][1,2,5]thiadiazepin]-2′(3′H)-yl)methyl)phenyl)propanoic Acid], the EC50 was 20 nM.
For `CCn1nnc2c(C)c(C(CC(=O)O)c3ccc(C)c(CN4CC5(COC5)Oc5ccccc5S4(=O)=O)n3)ccc21` (racemic) [Example 237, (R 5)-3-(6-((1,1-Dioxidospiro[benzo[b][1,4,5]oxathiazepine-4,3′-oxetan]-2(3H)-yl)methyl)-5-methylpyridin-2-yl)-3-(1-ethyl-4-methyl-1H-benzo[d][1,2,3]triazol-5-yl)propanoic Acid], the EC50 was 19 nM.
`Cc1cnc2c(c1)S(=O)(=O)N(Cc1cc(C(c3ccn4c(C(F)F)nnc4c3C)C(C)(C)C(=O)O)ccc1C)CC1(CC1)O2` (racemic) [Example 559, (R/S)-3-(3-(Difluoromethyl)-8-methyl-[1,2,4]triazolo[4,3-a]pyridin-7-yl)-2,2-dimethyl-3-(4-methyl-3-((8′-methyl-1′,1′-dioxidospiro[cyclopropane-1,4′-pyrido[2,3-b][1,4,5]oxathiazepin]-2′(3′H)-yl)methyl)phenyl)propanoic Acid] showed an EC50 of 4.69 nM.
`Cc1ccc(C(c2ccn3c(C(F)F)nnc3c2C)C(C)(C)C(=O)O)cc1CN1CC2(CC2)Oc2ncccc2S1(=O)=O` (racemic) [Example 566, (R/S)-3-(3-(Difluoromethyl)-8-methyl-[1,2,4]triazolo[4,3-a]pyridin-7-yl)-3-(3-((1′,1′-dioxidospiro[cyclopropane-1,4′-pyrido[2,3-b][1,4,5]oxathiazepin]-2′(3′H)-yl)methyl)-4-methylphenyl)-2,2-dimethylpropanoic Acid] was tested, and the EC50 was 6.81 nM.
Compound `Cc1ncc(C(c2ccn3c(C(F)(F)F)nnc3c2C)C(C)(C)C(=O)O)cc1CN1CC2(CCOCC2)Oc2ncccc2S1(=O)=O` (racemic) [Example 569, (R/S)-3-(5-((1′,1′-Dioxido-2,3,5,6-tetrahydrospiro[pyran-4,4′-pyrido[2,3-b][1,4,5]oxathiazepin]-2′(3′H)-yl)methyl)-6-methylpyridin-3-yl)-2,2-dimethyl-3-(8-methyl-3-(trifluoromethyl)-[1,2,4]triazolo[4,3-a]pyridin-7-yl)propanoic Acid] has an EC50 of 1370 nM.
With `Cc1cnc2c(c1)S(=O)(=O)N(Cc1cc(C(c3ccn4c(C(F)(F)F)nnc4c3C)C(C)(C)C(=O)O)cnc1C)CC1(CC1)O2` (racemic) [Example 572] the EC50 was 392 nM.
In the case of `Cc1ccc([C@H](CC(=O)O)c2ccc3c(nnn3CC3CC3)c2C)cc1CN1C[C@]2(C)CCCN2c2ncccc2S1(=O)=O` (relative stereo) [Example 12, (*S)-3-(1-(Cyclopropylmethyl)-4-methyl-1H-benzo[d][1,2,3]triazol-5-yl)-3-(4-methyl-3-(((*S)-7a-methyl-5,5-dioxido-7a,8,9,10-tetrahydropyrido[2,3-f]pyrrolo[2,1-d][1,2,5]thiadiazepin-6(7H)-yl)methyl)phenyl)propanoic Acid], the EC50 is reported as 2.7 nM.
Compound `Cc1ccc([C@H](CC(=O)O)c2ccn3c(C(F)F)nnc3c2C)cc1CN1C[C@@H]2CCCCN2c2ncc(C#N)cc2S1(=O)=O` (relative stereo) [Example 31, (*S)-3-(3-(((*S)-3-Cyano-5,5-dioxido-7,7a,8,9,10,11-hexahydro-6H-dipyrido[2,1-d:2′,3′-f][1,2,5]thiadiazepin-6-yl)methyl)-4-methylphenyl)-3-(3-(difluoromethyl)-8-methyl-[1,2,4]triazolo[4,3-a]pyridin-7-yl)propanoic Acid] has an EC50 of 9.9 nM.
`Cc1ccc([C@H](CC(=O)O)c2ccn3c(C(F)F)nnc3c2C)cc1CN1C[C@H]2CCCCN2c2ncc(C#N)cc2S1(=O)=O` (relative stereo) [Example 32, (*S)-3-(3-(((*R)-3-Cyano-5,5-dioxido-7,7a,8,9,10,11-hexahydro-6H-dipyrido[2,1-d:2′,3′-f][1,2,5]thiadiazepin-6-yl)methyl)-4-methylphenyl)-3-(3-(difluoromethyl)-8-methyl-[1,2,4]triazolo[4,3-a]pyridin-7-yl)propanoic Acid] was tested, and the EC50 was 13.6 nM.
`Cc1ccc([C@H](c2ccn3c(C(F)(F)F)nnc3c2C)C(C)C(=O)O)cc1CN1C[C@@H]2CCCCN2c2ncccc2S1(=O)=O` (relative stereo) [Example 130, (3*R)-3-(3-(((*S)-5,5-Dioxido-7,7a,8,9,10,11-hexahydro-6H-dipyrido[2,1-d:2′,3′-f][1,2,5]thiadiazepin-6-yl)methyl)-4-methylphenyl)-2-methyl-3-(8-methyl-3-(trifluoromethyl)-[1,2,4]triazolo[4,3-a]pyridine-7-yl)propanoic Acid] was tested, and the EC50 was 54.8 nM.
In the case of `Cc1ccc([C@@H](c2ccn3c(C(F)(F)F)nnc3c2C)C(C)C(=O)O)cc1CN1C[C@@H]2CCCCN2c2ncccc2S1(=O)=O` (relative stereo) [Example 131, (3*S)-3-(3-(((*S)-5,5-Dioxido-7,7a,8,9,10,11-hexahydro-6H-dipyrido[2,1-d:2′,3′-f][1,2,5]thiadiazepin-6-yl)methyl)-4-methylphenyl)-2-methyl-3-(8-methyl-3-(trifluoromethyl)-[1,2,4]triazolo[4,3-a]pyridine-7-yl)propanoic Acid], the EC50 is reported as 1.6 nM.
`CCn1nnc2c(C)c([C@@H](CC(=O)O)c3ccc(C)c(CN4C[C@@H]5CCCN5c5ccccc5S4(=O)=O)c3)ccc21` (relative stereo) [Example 148, (*S)-3-[3-[(5,5-Dioxo-7a,8,9,10-tetrahydro-7H-pyrrolo[2,1-d][1,2,5]benzothiadiazepin-6-yl)methyl]-4-methyl-phenyl]-3-(1-ethyl-4-methyl-benzotriazol-5-yl)propanoic Acid] gave an EC50 of 15 nM.
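Also: luciferase signal tracks Nrf2 activation of the ARE once compounds disrupt KEAP1-Nrf2 binding, read with One-Glo reagent, DMSO serving as low control.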
